Laboratory results taken from patent US20240307350A1, “5-METHOXY-N,N-DIMETHYLTRYPTAMINE (5-MEO-DMT) FOR TREATING DEPRESSION” (GH RESEARCH IRELAND LIMITED, priority 2019, published 2024).

What was measured:
[1] = system: patients with personality trait disturbance or anxiety; settings: LSD as an aid to psychotherapy; cited from earlier work
[2] = system: patients with alcohol dependence; settings: therapy with LSD; cited from earlier work
[3] = Clinical trial in healthy volunteers: 5-MeO-DMT and bufotenine plasma levels; format: in vivo, human; settings: all other samples (1 hour and 3 hours) after inhaled 5-MeO-DMT
Description: A clinical trial was performed in which 5-MeO-DMT free base (purity not less than 99%) at different dose levels was administered via inhalation (as described in Example 1) in a single day to healthy volunteers who had prior experiences with the use of synthetic or naturally-occurring psychedelics. The trial was reviewed and approved by the relevant national competent authority and local medical ethics committee. The trial consisted of two parts: Part A, where single doses of 5-MeO-DMT dosage amounts of 2 mg, 6 mg, 12 mg and 18 mg were administered; and Part B, where an initial 5-MeO-DMT dosage amount of 6 mg was administered, and then, unless the participant had already experienced a peak psychedelic experience based on the PPEQ or the supervising physician had decided that further dose increases were inappropriate based on observed side effects, further subsequent dosage amounts of 12 mg and 18 mg were administered with about 3 hours in between each administration. Participants in Part A only received one dose and were not allowed to receive higher doses in later parts of Part A and were not allowed to participate in Part B. Participants were closely monitored for 3.5 hours after the last dose, with additional follow-up visits 1 day and 7 days after dosing. Various safety related measures (e.g., adverse event reporting, safety laboratory analyses, vital signs, ECG, CADSS, PVT, DSST, Prospective Memory Task (PMT)) as well as measures of the intensity of the psychedelic effects (MEQ30, ASC, PPEQ, subjective description of the psychedelic experience) were recorded. Pharmacokinetic analysis of 5-MeO-DMT and bufotenine plasma levels was performed at 1 hour and 3 hours after drug administration in Part A, and at 3 hours after drug administration in Part B.

[4] = biological target: 5-HT2A receptor (Homo sapiens, UniProt P28223); settings: compared with 5-MeO-DMT; cited from earlier work
Chain of 5-HT2A receptor (P28223 whole entry): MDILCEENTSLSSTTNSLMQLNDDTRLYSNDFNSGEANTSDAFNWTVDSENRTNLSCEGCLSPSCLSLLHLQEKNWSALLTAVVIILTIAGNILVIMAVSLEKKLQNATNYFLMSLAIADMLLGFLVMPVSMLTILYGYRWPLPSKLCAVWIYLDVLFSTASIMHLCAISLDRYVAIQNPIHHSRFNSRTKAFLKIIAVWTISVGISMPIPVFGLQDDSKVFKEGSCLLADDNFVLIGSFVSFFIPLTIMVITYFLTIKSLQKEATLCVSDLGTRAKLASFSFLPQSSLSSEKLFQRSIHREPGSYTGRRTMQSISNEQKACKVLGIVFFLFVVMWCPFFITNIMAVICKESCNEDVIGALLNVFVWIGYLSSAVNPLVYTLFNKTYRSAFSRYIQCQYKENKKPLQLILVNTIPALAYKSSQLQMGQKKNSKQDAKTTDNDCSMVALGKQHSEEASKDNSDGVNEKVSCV

Compound: CCN(CC)C(=O)[C@@H]1C=C2c3cccc4[nH]cc(c34)C[C@H]2N(C)C1 [LSD, lysergic acid diethylamide]
- patients with an outcome of "much improved" or "improved" [1]: over 90%
- patients changed (stop drinking or are much improved) [2]: 50%

Compound: CN(C)CCc1c[nH]c2ccc(O)cc12 [bufotenine]
- plasma levels of the 5-MeO-DMT metabolite bufotenine [3]: undetectable
- affinity for the 5-HT2A receptor [4]: much higher affinity than 5-MeO-DMT
